Reference: US20100239556A1, “PROMOTING ECM PRODUCTION BY FIBROBLAST CELLS AND/OR PROMOTING MIGRATION OF FIBROBLAST CELLS IN A BIOLOGICAL SYSTEM” (TGR BioScience Pty Ltd., priority 2006, published 2010)

What was measured:
HFF cells [1] = test: Collagen I in PuraMatrix Peptide Hydrogel (western blot); format: cell-based, human; conditions: one week
Procedure: Additional experiments were also performed to ensure the effects observed using the INTEGRA® as a three-dimensional framework or scaffold were not limited to a bovine collagen/glycosaminoglycan structure and could be achieved in synthetically derived matrices. For these experiments a PuraMatrix™ Peptide Hydrogel was used. The PuraMatrix Peptide Hydrogel is a synthetic matrix that self assembles into a three-dimensional hydrogel (1% w/v amino acids: 99% water) under physiological conditions with a nanometer scale fibrous structure and an average pore size of 50-200 nm. For these experiments, HFF cells were suspended in a 20% sucrose solution, with or without proteins having peroxidase activity, and added 1:1 to neat (1%) PuraMatrix hydrogel and carefully pipette mixed, so as not to create bubbles. Each cell/gel mix was plated in 24 well plates and allowed to partially set at room temperature for 5 min. Next, DMEM supplemented with either 10, 5 or 2% FCS was very slowly overlayed in a dropwise fashion down the edge of the well so as not to disrupt the gel. Plates were placed in a 37° C. incubator for the mix to completely solidify, and the media was changed twice over 1 hr to equilibrate the gel to pH 7.4. The encapsulated hydrogel was incubated for one week, the bathing culture media removed and RIPA buffer added to the gel for total protein extraction. […]

[2] = Elution of peroxidase activity from INTEGRA (Sigmafast OPD detection)
Procedure: (§1) These experiments were performed by pre-incubating 1 cm×1 cm pieces of INTEGRA® with SBP (25 μg/ml) as described in Example 3 for either 30 minutes or 16 hours, control pieces were pre-incubated in DMEM only. After this time, the pieces of INTEGRA® were washed in fresh media to remove excess SBP solution, and placed into the wells of a 12-well culture plate pre-seeded with HFF cells (2×10^5cells/well) that were grown to confluency over three days. The media from these wells was collected after 24 and 48 hours with peroxidase activity measured (to determine the rate of elution of the proteins with peroxidase activity from the Integra) and the collagen content measured by ELISA (to ensure the eluted proteins with peroxidase activity retained the capacity to stimulate collagen production by the HFF cells). The peroxidase activity was assessed using the Sigmafast™ O-phenylenediamine dihydrochloride (OPD) detection method as per the manufacturers instructions. Briefly, 5 μl of sample was combined with 100 μl of reagent and relative peroxidase activity determined after 5-10 minutes incubation by measuring absorbance at 450 nm using a Wallac Victor Multilabel HTS counter.

HFF cells [3] = test: Collagen I production stimulated by SBP eluted from INTEGRA (ELISA); format: cell-based, human; conditions: versus control INTEGRA pieces
Procedure: as §1

soy bean peroxidase [SBP]
collagen I produced in the Hydrogel matrix (HFF cells [1]; SBP 25 μg/ml in 10% FCS versus 10% FCS alone): produced more collagen I
collagen I produced in the Hydrogel matrix (HFF cells [1]; SBP in 2 or 5% FCS): relatively more collagen I was produced
peroxidase activity eluted, pre-incubated 16 hours compared to 30 minutes [2]: approximately one third more
peroxidase activity in the medium collected after 24 and 48 hours ([2]; 24 versus 48 hours elution): identical
ECM production (collagen I ELISA) by HFF cells exposed to eluted protein (HFF cells [3]): able to stimulate ECM production
